Here are results for 15 molecules from US9708336B2, “Metallo-beta-lactamase inhibitors” (priority 2014, dated 2017).

In test [1] the test system is Serratia marcescens expressing IMP-1 (CL5741). The experiment in a line: Antibiotic potentiation activity: synergistic concentration (MITC95) with imipenem, OD600 growth. Conditions: Serratia marcescens expressing IMP-1 (CL5741), 95% growth inhibition. The class given is cell-based. The gist of the method:
(§1)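 In 1.1× CAMHB, clinical isolates from overnight plates were challenged with test compound alongside imipenem at an assay concentration of 4 μg/ml, sometimes 1 μg/ml. Plates sat covered at 35 °C for 22–24 h prior to spectrophotometric reading.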

Test [2] has as its system Escherichia coli expressing NDM-1 (CLB30016). Described as above. The test is classed as cell-based. Conditions: Escherichia coli expressing NDM-1 (CLB30016), 95% growth inhibition. In short, it runs like this:
as §1

Test [3] concerns Klebsiella pneumoniae expressing VIM-1 (IHMA599644). The description is as above. To be noted: Klebsiella pneumoniae expressing VIM-1 (IHMA599644), 95% growth inhibition. The test is classed as cell-based. The gist of the method:
as §1

In a further test the target is VIM-1 (Pseudomonas aeruginosa (strain ATCC 15692 / DSM 22644 / CIP 104116 / JCM 14847 / LMG 12228 / 1C / PRS 101 / PAO1), UniProt A0A0F7KYQ8). The experiment in a line: Enzyme activity: determination of IC50, fluorescence assay with CCF2-FA substrate (VIM-1). To be noted: CCF2-FA fluorescence assay. The test is classed as biochemical.
The target in the next test is NDM-1 (Klebsiella pneumoniae, UniProt C7C422). As to the kind of experiment: biochemical. Conditions: NDM-1 enzyme, CCF2-FA fluorescence assay; read-out: NDM-1 IC50. The test is classed as biochemical.
NDM-1, sequence (C7C422 whole entry, looked up, species assumed): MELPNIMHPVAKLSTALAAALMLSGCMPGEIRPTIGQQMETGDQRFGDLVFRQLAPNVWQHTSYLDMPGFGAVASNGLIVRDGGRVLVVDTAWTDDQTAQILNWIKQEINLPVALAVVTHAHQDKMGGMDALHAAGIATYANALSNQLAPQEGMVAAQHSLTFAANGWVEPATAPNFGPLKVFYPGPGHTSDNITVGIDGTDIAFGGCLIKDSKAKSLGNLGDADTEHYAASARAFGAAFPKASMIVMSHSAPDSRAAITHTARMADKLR
In a further test the target is IMP-1 (Serratia marcescens, UniProt P52699). As to the kind of experiment: biochemical. The class given is biochemical. Conditions: IMP-1 enzyme, CCF2-FA fluorescence assay; read-out: IMP-1 IC50.
IMP-1, sequence (P52699 whole entry, looked up): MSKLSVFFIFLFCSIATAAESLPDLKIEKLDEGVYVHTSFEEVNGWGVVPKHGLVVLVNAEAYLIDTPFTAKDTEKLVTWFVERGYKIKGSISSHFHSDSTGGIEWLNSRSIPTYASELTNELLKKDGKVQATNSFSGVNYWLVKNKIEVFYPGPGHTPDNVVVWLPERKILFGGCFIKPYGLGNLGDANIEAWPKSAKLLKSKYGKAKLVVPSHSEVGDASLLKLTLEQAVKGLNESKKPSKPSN
Where [4] appears, read: VIM-1 enzyme, read-out: VIM-1 IC50.

The structures appear in SMILES notation. Where two headings read alike, the source gives them in different places. Where only a bound is given, the exact number is not on record here.

Turning to `NS(=O)(=O)c1cccc(-c2ccc(CN3CCC(O)CC3)cc2)c1-c1nnn[nH]1` [Example 394, 4′-[(4-hydroxypiperidin-1-yl)methyl]-2-(1H-tetrazol-5-yl)biphenyl-3-sulfonamide], in test [1], the “Serratia marcescens MITC95” value was found to be 3.125 µM. Besides, the “Escherichia coli MITC95” value in test [2] stood at 2.344 µM. The “Klebsiella pneumoniae MITC95” value in test [3] was more than 200 µM. In addition, the IC50 (in general, the concentration needed to halve the response being measured) was determined as 658 nM at VIM-1 (setting [4]), 11.3 nM on NDM-1 and 195 nM on IMP-1.
On to `NS(=O)(=O)c1cccc(-c2ccc(CN3CCCC3CO)cc2)c1-c1nnn[nH]1` (stereo not drawn) [Example 395, 4′-{[2-(hydroxymethyl)pyrrolidin-1-yl]methyl}-2-(1H-tetrazol-5-yl)biphenyl-3-sulfonamide], for which the “Serratia marcescens MITC95” value in test [1] amounted to 3.125 µM. The “Escherichia coli MITC95” value in test [2] came out at 1.563 µM. Also, the “Klebsiella pneumoniae MITC95” value in test [3] came out at 100 µM. The IC50 on VIM-1 (setting [4]) was found to be 343 nM; on NDM-1, 14.4 nM; on IMP-1, 226 nM.
As for `NS(=O)(=O)c1cccc(-c2ccc(CN3CC(O)C(F)C3)cc2)c1-c1nnn[nH]1` (stereo not drawn) [Example 396, 4′-[(3-fluoro-4-hydroxypyrrolidin-1-yl)methyl]-2-(1H-tetrazol-5-yl)biphenyl-3-sulfonamide], the “Serratia marcescens MITC95” value in test [1] was 1.172 µM. Also, the “Escherichia coli MITC95” value in test [2] came out at 1.172 µM. In test [3], the “Klebsiella pneumoniae MITC95” value worked out at 100 µM. The IC50 at VIM-1 (setting [4]) is 181 nM; on NDM-1 it was 3.21 nM; on IMP-1, 22.4 nM.
Take `Nc1nccc2ccc(-c3cccc(S(N)(=O)=O)c3-c3nnn[nH]3)cc12` [Example 400, 3-(1-aminoisoquinolin-7-yl)-2-(1H-tetrazol-5-yl)benzenesulfonamide]: in test [1], the “Serratia marcescens MITC95” value amounted to 12.5 µM. In test [2], the “Escherichia coli MITC95” value worked out at 0.25 µM. In test [3], the “Klebsiella pneumoniae MITC95” value was determined as 6.25 µM. Moreover, the IC50 against VIM-1 (VIM-1 IC50, VIM-1 enzyme) was determined as 18.4 nM; at NDM-1, 1.64 nM; on IMP-1, 166 nM.
Consider `Nc1ccnc2ccc(-c3cccc(S(N)(=O)=O)c3-c3nnn[nH]3)cc12` [Example 401, 3-(4-amino-6-quinolyl)-2-(1H-tetrazol-5-yl)benzenesulfonamide], for which the “Serratia marcescens MITC95” value in test [1] was 6.25 µM. For the same molecule, the “Escherichia coli MITC95” value in test [2] was 0.09375 µM. Further, the “Klebsiella pneumoniae MITC95” value in test [3] came to 0.8906 µM. The IC50 against VIM-1 (VIM-1 IC50, VIM-1 enzyme) turned out to be 7.57 nM; at NDM-1, 7.31 nM; at IMP-1 it was 646 nM.
In the case of `Nc1cnc(-c2cccc(S(N)(=O)=O)c2-c2nnn[nH]2)cn1` [Example 402, 3-(5-aminopyrazin-2-yl)-2-(1H-tetrazol-5-yl)benzenesulfonamide], the “Serratia marcescens MITC95” value in test [1] turned out to be 6.25 µM. Besides, in test [2], the “Escherichia coli MITC95” value turned out to be 0.3906 µM. Further, the “Klebsiella pneumoniae MITC95” value in test [3] was 25 µM. Further, the IC50 at VIM-1 (setting [4]) turned out to be 349 nM; on NDM-1, 8.09 nM; on IMP-1, 389 nM.
As for `Nc1ccc2cc(-c3cccc(S(N)(=O)=O)c3-c3nnn[nH]3)ccc2n1` [Example 403, 3-(2-amino-6-quinolyl)-2-(1H-tetrazol-5-yl)benzenesulfonamide], in test [1], the “Serratia marcescens MITC95” value is 4.688 µM. Further, in test [2], the “Escherichia coli MITC95” value was determined as 0.125 µM. For the same molecule, in test [3], the “Klebsiella pneumoniae MITC95” value was 6.25 µM. Also, the IC50 on VIM-1 (setting [4]) came out at 15.4 nM; at NDM-1, 2.34 nM; at IMP-1 it was 184 nM.
In the case of `NS(=O)(=O)c1cccc(-c2cnc3ccccn23)c1-c1nnn[nH]1` [Example 404, 3-imidazo[1,2-a]pyridin-3-yl-2-(1H-tetrazol-5-yl)benzenesulfonamide], the “Serratia marcescens MITC95” value in test [1] was 1.708 µM. In test [2], the “Escherichia coli MITC95” value came to 0.0625 µM. Also, the “Klebsiella pneumoniae MITC95” value in test [3] was 2.563 µM. Also, the IC50 came out at 5.41 nM on VIM-1 (setting [4]), 0.817 nM at NDM-1 and 71.4 nM on IMP-1.
For `NS(=O)(=O)c1cccc(-c2ccc3nccnc3c2)c1-c1nnn[nH]1` [Example 405, 3-quinoxalin-6-yl-2-(1H-tetrazol-5-yl)benzenesulfonamide], the “Serratia marcescens MITC95” value in test [1] is 1.563 µM. Also, the “Escherichia coli MITC95” value in test [2] was found to be 1.563 µM. In addition, the “Klebsiella pneumoniae MITC95” value in test [3] was determined as 62.5 µM. The results for the IC50 on VIM-1 (setting [4]), on NDM-1 and on IMP-1 were 16.9 nM, 4.23 nM and 67.6 nM, respectively.
On to `NS(=O)(=O)c1cccc(-c2ccnc3ncccc23)c1-c1nnn[nH]1` [Example 406, 3-(1,8-naphthyridin-4-yl)-2-(1H-tetrazol-5-yl)benzenesulfonamide], for which the “Serratia marcescens MITC95” value in test [1] came to 6.25 µM. In test [2], the “Escherichia coli MITC95” value is 1.172 µM. Also, the “Klebsiella pneumoniae MITC95” value in test [3] came out at 3.125 µM. Besides, the values for the IC50 at VIM-1 (setting [4]), at NDM-1 and on IMP-1 were 1.74 nM, 1.65 nM and 250 nM, respectively.
With `NS(=O)(=O)c1cccc(-c2ccc3cnccc3c2)c1-c1nnn[nH]1` [Example 408, 3-(6-isoquinolyl)-2-(1H-tetrazol-5-yl)benzenesulfonamide], in test [1], the “Serratia marcescens MITC95” value turned out to be 4.688 µM. Also, in test [2], the “Escherichia coli MITC95” value was determined as 0.3906 µM. For the same molecule, in test [3], the “Klebsiella pneumoniae MITC95” value was 75 µM. Besides, the IC50 was 14.9 nM on VIM-1 (setting [4]), 1.38 nM at NDM-1 and 84.3 nM on IMP-1.
With `NS(=O)(=O)c1cccc(-c2csc(-c3ccncc3)n2)c1-c1nnn[nH]1` [Example 409, 3-[2-(4-pyridyl)thiazol-4-yl]-2-(1H-tetrazol-5-yl)benzenesulfonamide], the “Serratia marcescens MITC95” value in test [1] stood at 12.5 µM. Also, the “Escherichia coli MITC95” value in test [2] came to 1.563 µM. In test [3], the “Klebsiella pneumoniae MITC95” value is more than 200 µM. For the same molecule, the IC50 at VIM-1 (setting [4]) was determined as 237 nM; at NDM-1, 26.9 nM; at IMP-1 it was 445 nM.
Regarding `NS(=O)(=O)c1cccc(-c2cc3ccncc3s2)c1-c1nnn[nH]1` [Example 410, 2-(1H-tetrazol-5-yl)-3-thieno[2,3-c]pyridin-2-yl-benzenesulfonamide], in test [1], the “Serratia marcescens MITC95” value came to 3.125 µM. In addition, the “Escherichia coli MITC95” value in test [2] amounted to 0.5859 µM. Further, the “Klebsiella pneumoniae MITC95” value in test [3] was determined as 18.75 µM. In addition, the values for the IC50 at VIM-1 (setting [4]), at NDM-1 and on IMP-1 were 19.2 nM, 4.11 nM and 107 nM, respectively.
For the molecule `NS(=O)(=O)c1cccc(-c2cc3cnccc3s2)c1-c1nnn[nH]1` [Example 411, 2-(1H-tetrazol-5-yl)-3-thieno[3,2-c]pyridin-2-yl-benzenesulfonamide], the “Serratia marcescens MITC95” value in test [1] is 3.125 µM. Further, the “Escherichia coli MITC95” value in test [2] amounted to 0.7813 µM. The “Klebsiella pneumoniae MITC95” value in test [3] is 25 µM. Further, the IC50 on VIM-1 (setting [4]) stood at 27.8 nM; at NDM-1 it was 4.84 nM; at IMP-1, 102 nM.
Regarding `Nc1ccnc2cc(-c3cccc(S(N)(=O)=O)c3-c3nnn[nH]3)ccc12` [Example 412, 3-(4-amino-7-quinolyl)-2-(1H-tetrazol-5-yl)benzenesulfonamide], the “Serratia marcescens MITC95” value in test [1] is 25 µM. Also, the “Escherichia coli MITC95” value in test [2] was determined as 0.3906 µM. The “Klebsiella pneumoniae MITC95” value in test [3] came out at 3.125 µM. The IC50 was determined as 25.8 nM at VIM-1 (setting [4]), 25.9 nM at NDM-1 and 1390 nM on IMP-1.
